Source: patent publication US20200138854A1, “Method of Detecting and Quantifying Bile Acid from Saliva” (Ironwood Pharmaceuticals, Inc., priority 2017, published 2020)
Values joined by “and” are separate entries in the source; they are usually repeats but may differ in a detail not shown here. Identical values can stand only once.

Assays:
[1] = Frozen (−20° C.) short-term stability in cholestyramine-treated human saliva; details: for Concentration QC-LLOQ / Concentration QC-Mid / Concentration QC-High: run 33; for % Bias / Concentration, Mean / Concentration: −20° C.; for Concentration: individual values
Experimental: Quality control samples for the evaluation of accuracy and precision and for run acceptance were prepared on the day of sample extraction. QC samples prepared in cholestyramine-treated saliva are to be prepared in small volumes for analysis. Stability for these QC samples would be limited to short-term storage (i.e., 2 days) whereas untreated human saliva would be evaluated for long-term storage.
For stability in cholestyramine-treated human saliva, samples were prepared by spiking cholestyramine-treated human saliva with each analyte at the QC-LLOQ, QC-Low, QC-Mid and QC-High levels. The samples were stored in a −20° C. freezer. After 1 day and 2 days of storage, each sample was extracted in replicates of four for analysis.

[2] = Long-term (1 month at −20° C. and −80° C.) stability in untreated human saliva; details: for % Bias QC-High / % CV QC-High / Difference from Fresh (%) QC-High / Mean concentration QC-High / Concentration QC-High / Fresh QCs (Batch 34) Mean at Time Zero, QC-High: untreated human saliva, nominal 80.0 ng/mL; for Concentration QC-High: run 35
Experimental: For long-term stability in untreated human saliva, samples were prepared by spiking untreated human saliva with each analyte at the QC-Low and QC-High levels. The samples were stored in a −20° C. freezer and in a −80° C. freezer. After 1 month of storage, each sample was extracted in replicates of three for analysis.
A 100-μL aliquot of sample (calibration standards, quality controls, blanks, and stability samples) was transferred into a 96 well plate, according to a pre-defined layout. […] The plates were covered, vortex-mixed and then centrifuged for 5 minutes at 3200 rpm. Supernatants (350 μL each) were transferred into the corresponding wells of a clean 96 well plate and evaporated to dryness under nitrogen in a Turbovap set to 40° C. The dried residue in each well was reconstituted with 75 μL of 50:50 (v:v) methanol:water.

[3] = 1 Day at −20° C., nominal 0.500 ng/mL
[4] = 1 Day at −20° C., nominal 8.00 ng/mL
[5] = 1 Day at −20° C., nominal 80.0 ng/mL
[6] = 2 Days at −20° C., nominal 0.500 ng/mL
[7] = 2 Days at −20° C., nominal 8.00 ng/mL
[8] = 2 Days at −20° C., nominal 80.0 ng/mL
[9] = 1 Day, QC-High, nominal 80.0 ng/mL
[10] = 1 Day, QC-LLOQ, nominal 0.500 ng/mL
[11] = 1 Day, QC-Mid, nominal 8.00 ng/mL
[12] = 2 Days, QC-High, nominal 80.0 ng/mL
[13] = 2 Days, QC-LLOQ, nominal 0.500 ng/mL
[14] = 2 Days, QC-Mid, nominal 8.00 ng/mL

For `C[C@H](CCC(=O)NCCS(=O)(=O)O)[C@H]1CC[C@H]2[C@@H]3[C@H](O)C[C@@H]4C[C@H](O)CC[C@]4(C)[C@H]3C[C@H](O)[C@]12C` [Taurocholic Acid, Taurocholic acid], the “% Bias QC-LLOQ” value [1, 3] was −1.1%, the “% CV QC-LLOQ” value [1, 3] was 2.4% and the “Mean concentration QC-LLOQ” value [1, 3] was 0.495 ng/mL. For the same compound, the “Concentration QC-LLOQ” value [1, 3] was 0.481 ng/mL and 0.509 ng/mL and 0.491 ng/mL and 0.498 ng/mL, the “% Bias QC-Mid” value [1, 4] was −8.4% and the “% CV QC-Mid” value [1, 4] was 1.9%. For the same compound, the “Mean concentration QC-Mid” value [1, 4] was 7.33 ng/mL, the “Concentration QC-Mid” value [1, 4] was 7.32 ng/mL and 7.29 ng/mL and 7.51 ng/mL and 7.18 ng/mL and the “% Bias QC-High” value [1, 5] was −6.6%. The “% CV QC-High” value [1, 5] was 2.7%, the “Mean concentration QC-High” value [1, 5] was 74.7 ng/mL and the “Concentration QC-High” value [1, 5] was 74.9 ng/mL and 77.2 ng/mL and 72.3 ng/mL and 74.5 ng/mL. For the same compound, the “% Bias QC-LLOQ” value [1, 6] was 11.2%, the “% CV QC-LLOQ” value [1, 6] was 4.1% and the “Mean concentration QC-LLOQ” value [1, 6] was 0.556 ng/mL. The “Concentration QC-LLOQ” value [1, 6] was 0.538 ng/mL and 0.563 ng/mL and 0.537 ng/mL and 0.585 ng/mL, the “% Bias QC-Mid” value [1, 7] was −6.7% and the “% CV QC-Mid” value [1, 7] was 4.8%. The “Mean concentration QC-Mid” value [1, 7] was 7.46 ng/mL, the “Concentration QC-Mid” value [1, 7] was 6.98 ng/mL and 7.47 ng/mL and 7.55 ng/mL and 7.85 ng/mL and the “% Bias QC-High” value [1, 8] was −6.7%. For the same compound, the “% CV QC-High” value [1, 8] was 2.1%, the “Mean concentration QC-High” value [1, 8] was 74.7 ng/mL and the “Concentration QC-High” value [1, 8] was 73.1 ng/mL and 75.1 ng/mL and 73.8 ng/mL and 76.6 ng/mL. The “Short-term stability in cholestyramine-treated human saliva” value ([1]; at −20° C.) was “up to 2 days”, the “Stability in Treated Human Saliva” value ([1]; at −20° C., cholestyramine-treated human saliva) was 2 days and the “% Bias QC-High” value ([2]; 1 month −20° C. storage) was −2.9%. The “% CV QC-High” value ([2]; 1 month −20° C. storage) was 3.0%, the “Difference from Fresh (%) QC-High” value ([2]; 1 month −20° C. storage) was −4.5% and the “Mean concentration QC-High” value ([2]; 1 month −20° C. storage) was 77.7 ng/mL. The “Concentration QC-High” value ([2]; 1 month −20° C. storage) was 75.1 ng/mL and 78.3 ng/mL and 79.7 ng/mL, the “% Bias QC-High” value ([2]; 1 month −80° C. storage) was −2.3% and the “% CV QC-High” value ([2]; 1 month −80° C. storage) was 3.7%. For the same compound, the “Difference from Fresh (%) QC-High” value ([2]; 1 month −80° C. storage) was −4.0%, the “Mean concentration QC-High” value ([2]; 1 month −80° C. storage) was 78.1 ng/mL and the “Concentration QC-High” value ([2]; 1 month −80° C. storage) was 81.2 ng/mL and 77.8 ng/mL and 75.4 ng/mL. For the same compound, the “Fresh QCs (Batch 34) Mean at Time Zero, QC-High” value (from here on “Fresh QCs (Batch 34) Mean”) ([2]; reference for −20° C. storage) was 81.4 ng/mL and the “Fresh QCs (Batch 34) Mean” value ([2]; reference for −80° C. storage) was 81.4 ng/mL.
For `C[C@H](CCC(=O)NCCS(=O)(=O)O)[C@H]1CC[C@H]2[C@@H]3CC[C@@H]4C[C@H](O)CC[C@]4(C)[C@H]3C[C@H](O)[C@]12C` [Taurodeoxycholic Acid, Taurodeoxycholic acid], the “Short-term stability in cholestyramine-treated human saliva” value ([1]; human) was “up to 2 days”, the “Stability in Treated Human Saliva” value ([1]; human) was 2 days and the “% Bias” value [1, 9] was −1.3%. For the same compound, the “Concentration, Mean” value [1, 9] was 79.0 ng/mL, the Concentration [1, 9] was 78.6 ng/mL and 82.0 ng/mL and 76.9 ng/mL and 78.5 ng/mL and the “% Bias” value [1, 10] was 10.3%. The “Concentration, Mean” value [1, 10] was 0.551 ng/mL, the Concentration [1, 10] was 0.539 ng/mL and 0.570 ng/mL and 0.536 ng/mL and 0.560 ng/mL and the “% Bias” value [1, 11] was −2.5%. The “Concentration, Mean” value [1, 11] was 7.80 ng/mL, the Concentration [1, 11] was 7.71 ng/mL and 7.90 ng/mL and 7.81 ng/mL and 7.77 ng/mL and the “% Bias” value [1, 12] was −4.4%. For the same compound, the “Concentration, Mean” value [1, 12] was 76.5 ng/mL, the Concentration [1, 12] was 73.7 ng/mL and 76.5 ng/mL and 76.2 ng/mL and 79.5 ng/mL and the “% Bias” value [1, 13] was 17.2%. The “Concentration, Mean” value [1, 13] was 0.586 ng/mL, the Concentration [1, 13] was 0.596 ng/mL and 0.592 ng/mL and 0.555 ng/mL and 0.601 ng/mL and the “% Bias” value [1, 14] was −2.9%. The “Concentration, Mean” value [1, 14] was 7.77 ng/mL, the Concentration [1, 14] was 7.19 ng/mL and 8.02 ng/mL and 8.13 ng/mL and 7.72 ng/mL and the “% Bias QC-High” value ([2]; 1 month −20° C. storage) was −4.7%. The “% CV QC-High” value ([2]; 1 month −20° C. storage) was 3.5%, the “Difference from Fresh (%) QC-High” value ([2]; 1 month −20° C. storage) was −5.5% and the “Mean concentration QC-High” value ([2]; 1 month −20° C. storage) was 76.2 ng/mL. The “Concentration QC-High” value ([2]; 1 month −20° C. storage) was 73.7 ng/mL and 79.0 ng/mL and 76.0 ng/mL, the “% Bias QC-High” value ([2]; 1 month −80° C. storage) was −2.7% and the “% CV QC-High” value ([2]; 1 month −80° C. storage) was 4.4%. The “Difference from Fresh (%) QC-High” value ([2]; 1 month −80° C. storage) was −3.6%, the “Mean concentration QC-High” value ([2]; 1 month −80° C. storage) was 77.8 ng/mL and the “Concentration QC-High” value ([2]; 1 month −80° C. storage) was 80.2 ng/mL and 79.4 ng/mL and 73.9 ng/mL. For the same compound, the “Long-term stability in untreated human saliva” value ([2]; at 80° C. (sic)) was “up to 1 month”, the “Stability in Untreated Human Saliva” value ([2]; at −20° C.) was 1 Month and the “Stability in Untreated Human Saliva” value ([2]; at −80° C.) was 1 Month. The “Fresh QCs (Batch 34) Mean” value ([2]; reference for −20° C. storage) was 80.7 ng/mL and the “Fresh QCs (Batch 34) Mean” value ([2]; reference for −80° C. storage) was 80.7 ng/mL.
